The results in this text go back to patent US5569456A, “Biologically active rupununines” (priority 1994, dated 1996).

Series [1] is described as follows: Stability of rupununine crystals under nitrogen at room temperature. As to conditions: crystals kept under nitrogen at room temperature, prolonged periods. The series is classed as physicochemical. The protocol:
(§1) Rupununine (100 mg.) was dissolved in the minimum volume of distilled acetone (2 ml). The solution was warmed gently, filtered and then left in the refrigerator overnight. This produced white needles which were recrystallized in acetone giving crystalline rupununine (45 mg.). Further crystalline samples were also obtained by the same treatment with acetone, of Fraction C.1 and C.2. The crystals were dried in a drying pistol under nitrogen, over phosphorus pentoxide at 60° C. overnight. […] The crystals melted between 214°-217° C., and were fairly stable, if kept under nitrogen at room temperature, even for prolonged periods.

The nature of series [2]: Solubility of crystalline rupununine in organic solvents. The series is classed as physicochemical. As to conditions: crystalline white solid. On the procedure:
as §1

With rupununine, in series [1], the stability entry is reported as “fairly stable”. Further, the solubility in chloroform result in series [2] (chloroform) is on record as “fairly soluble”. The solubility in ethanol entry in series [2] (ethanol) is “fairly soluble”. Besides, in series [2] (ether), the solubility in ether entry is given as “only partially soluble”. Moreover, in series [2] (methanol), the solubility in methanol result is reported as “fairly soluble”.
